Measured values reported in publication PMC6162703, “Interaction of 2′R-ochratoxin A with Serum Albumins: Binding Site, Effects of Site Markers, Thermodynamics, Species Differences of Albumin-binding, and Influence of Albumin on Its Toxicity in MDCK Cells” (Toxins, 2018).
Values joined by “and” are separate entries in the source; they are usually repeats but may differ in a detail not shown here. Identical values can stand only once.

How the values were obtained:
[1] = humans; cited from earlier work
HSA [2] = biological target: T1, HSA (Homo sapiens, UniProt P02768); details: cited from earlier work
T1 construct: purchased Sigma-Aldrich

MDCK cells [3] = assay type: cell-based, canine; details: 24 h; for effect on the concentration of ATP and total protein: 0–50 µM
Text: Similarly to OTA, 2′R-OTA also forms very stable complexes with albumins (Table 2). Therefore, it was reasonable to hypothesize that the presence of albumin may decrease the 2′R-OTA-induced toxicity in cell experiments, due to the entrapment of the mycotoxin in the cell medium by albumin. To test the influence of albumin on the in vitro effects of ochratoxins, the acute cellular toxicity of 2′R-OTA and OTA was investigated in the absence and presence of HSA and fetal bovine serum (FBS). MDCK kidney cells were treated with the mycotoxins at increasing concentrations (0–50 µM) for 24 h with and without 10% FBS or 40 g/L HSA. Ten percent FBS is commonly used in cell culture media (it yields approximately 3.5 g/L final concentration of BSA) in cell experiments, whereas approximately 40 g/L HSA circulates in the human blood. The mycotoxin-induced loss of cell viability was evaluated based on ATP and total protein levels. […] Under the applied conditions, the presence of 10% FBS or 40 g/L HSA (without ochratoxins) had no significant effect on cell viability (data not shown). […] The weaker effect of FBS can be attributed to the lower BSA content of the cell medium (3.5 g/L BSA verses 40 g/L HSA). Since albumins form very stable complexes with both 2′R-OTA and OTA, albumin likely reduces the cellular uptake of these mycotoxins, resulting in their lower cellular toxicity.
MDCK (Madin-Darby canine kidney epithelial cell line, ATCC: CCL-34) cell culture was maintained in DMEM with 10% FBS, penicillin (100 U/mL), and streptomycin (100 µg/mL) at 37 °C in a humidified environment (5% CO2). Cells were trypsinized and plated in 96-well sterile plastic plates (approximately 10^4 cells/well) for overnight pre-incubation. Next day, the culture medium was replaced with fresh one (with or without 10% FBS or 40 g/L HSA), then cells were treated with increasing concentrations of 2′R-OTA and/or OTA (0, 1, 5, 10, 20 and 50 µM; in 150 µL medium/well). After 24 h incubation, cell viability was evaluated based on cellular ATP and total protein levels. […]

rat serum albumin (RSA) = rat serum albumin (RSA) (Rattus norvegicus, UniProt P02770); test: Fluorescence spectroscopy of 2′R-OTA/OTA-RSA complex (binding constant by Hyperquad, fluorescence enhancement); details: for Kd: K in L/mol, PBS pH 7.4, 25 °C
Procedure: (§1) To test this hypothesis, the fluorescence emission spectra of 2′R-OTA (Figure 7A) and OTA (Figure 7B) were recorded in the absence and presence of albumins from different species, including human (HSA), bovine (BSA), porcine (PSA), and rat (RSA) serum albumins (λex = 394 nm).
(§2) However, excitation of the same samples at 394 nm leads to the excitation of both free and albumin-bound 2′R-OTA [23, 24]. […] Binding constants of 2′R-OTA-albumin complexes were determined by the Hyperquad program, based on the fluorescence intensities measured at 447 nm (Figure 8C,D).
(§3) Fluorescence spectroscopic analyses, including anisotropy measurements, were carried out employing a Hitachi F-4500 fluorescence spectrophotometer. Spectroscopic measurements were performed in phosphate buffered saline (PBS, pH 7.4) at 25 °C in the presence of air. Fluorescence emission spectrum of 2′R-OTA (1 µM) was recorded in the presence of increasing concentrations of albumin (0.0, 0.1, 0.25, 0.5, 0.75, 1.0, 1.25, 1.5, 2.0, 3.0 and 5.0 µM) using 295 and 394 nm as excitation wavelengths. At 394 nm, we excited directly 2′R-OTA and its albumin complex. However, using 295 nm excitation wavelength, albumin-bound 2′R-OTA was excited as a result of the energy transfer between albumins and 2′R-OTA [23, 31].
(§4) Binding constants (K) of mycotoxin-albumin complexes were calculated by non-linear fitting, using the Hyperquad2006 program package (Protonic Software) as described in previous studies. The stoichiometry of 2′R-OTA-albumin complexes was calculated based on the model associated with the lowest standard deviation.

[4] = humans; cited from earlier work; remark: listed apart in the source
HSA [5] = biological target: T1, HSA; assay type: binding; details: 1.0 µM 2′R-OTA, 1.5 µM HSA, site marker 0–30 µM, PBS pH 7.4
HSA [6] = biological target: T1, HSA; test: Thermodynamics of 2′R-OTA-HSA complex formation (van’t Hoff, six temperatures); assay type: binding
Text: Since thermodynamic data give a deeper insight into the nature of protein-ligand interactions (including binding forces are involved in the complex formation), the binding ability of 2′R-OTA towards HSA was also examined at different temperatures. According to the van’t Hoff equation (Equation (2)), the logK values expressed as the function of the appropriate reciprocal temperatures show good linearity (Figure 6).
For the deeper insight into 2′R-OTA-HSA interaction, binding constants of mycotoxin-albumin complexes were also determined at six different temperatures (298, 301, 304, 307, 310 and 313 K). The binding constants were determined by the Hyperquad2006 program package, using 394 and 447 nm as excitation and emission wavelengths, respectively. Thermodynamic parameters associated to the complex formation between 2′R-OTA and HSA were determined based on the van ’t Hoff equation: (2) logK=−ΔG /RT=−ΔH/2.303RT+ΔS/2.303R where ΔG, ΔH, and ΔS denote the Gibbs free energy, enthalpy, and entropy changes of the binding reaction, respectively; while R is the gas constant and T refers the temperature.

[7] = test system: IHKE and HepG2 cell lines; details: in vitro studies; cited from earlier work
[8] = biological target: bovine serum albumin (BSA) (Bos taurus, UniProt P02769); test: Fluorescence spectroscopy of 2′R-OTA/OTA-BSA complex (binding constant by Hyperquad, fluorescence enhancement); details: for Kd: K in L/mol, PBS pH 7.4, 25 °C
Procedure: as §1, §2, §3, §4

[9] = biological target: human serum albumin (HSA) (Homo sapiens, UniProt P02768); test: Fluorescence spectroscopy of 2′R-OTA-HSA complex (binding constant by Hyperquad, fluorescence enhancement)
Procedure: as §1, §2, §3, §4

[10] = biological target: porcine serum albumin (PSA) (Sus scrofa, UniProt P08835); test: Fluorescence spectroscopy of 2′R-OTA/OTA-PSA complex (binding constant by Hyperquad, fluorescence enhancement); details: λem = 447 nm; for Kd: K in L/mol, PBS pH 7.4, 25 °C
Procedure: as §1, §2, §3, §4

MDCK cells [11] = test: Co-treatment of MDCK cells with OTA and 2′R-OTA (ATP levels/well); assay type: cell-based, canine; details: sub-toxic 2′R-OTA concentrations, 24 h
Procedure: Since 2′R-OTA appears in the circulation together with OTA, the toxic action of OTA in the presence of increasing 2′R-OTA concentrations was also tested. Both mycotoxins occupy Site I as their primary binding sites in albumin, therefore, 2′R-OTA may able to displace OTA from HSA, resulting in the increased cellular uptake and cytotoxicity of OTA in the presence of 2′R-OTA. Because 40 g/L HSA completely abolished the acute toxic action of ochratoxins, co-treatment of MDCK cells with OTA and 2′R-OTA was investigated without albumin and in the presence of 10% FBS. ATP levels/well were quantified after 24 h incubation. […] In the presence of FBS (Figure 10B), the 2′R-OTA-induced further loss in cell viability may be partly attributed to the displacement of OTA from albumin by 2′R-OTA. […] Therefore, other toxicokinetic and/or toxicodynamic mechanism(s) may be involved. Despite its relatively lower toxicity, when simultaneously present 2′R-OTA with OTA, 2′R-OTA can increase the effect of OTA.
MDCK (Madin-Darby canine kidney epithelial cell line, ATCC: CCL-34) cell culture was maintained in DMEM with 10% FBS, penicillin (100 U/mL), and streptomycin (100 µg/mL) at 37 °C in a humidified environment (5% CO2). […] After 24 h incubation, cell viability was evaluated based on cellular ATP and total protein levels. […]

[12] = 1 µM mycotoxin, 5 µM albumin, PBS, λex = 394 nm
[13] = both excitation wavelengths (295 or 394 nm)

Chain of bovine serum albumin (BSA) (P02769 25-607): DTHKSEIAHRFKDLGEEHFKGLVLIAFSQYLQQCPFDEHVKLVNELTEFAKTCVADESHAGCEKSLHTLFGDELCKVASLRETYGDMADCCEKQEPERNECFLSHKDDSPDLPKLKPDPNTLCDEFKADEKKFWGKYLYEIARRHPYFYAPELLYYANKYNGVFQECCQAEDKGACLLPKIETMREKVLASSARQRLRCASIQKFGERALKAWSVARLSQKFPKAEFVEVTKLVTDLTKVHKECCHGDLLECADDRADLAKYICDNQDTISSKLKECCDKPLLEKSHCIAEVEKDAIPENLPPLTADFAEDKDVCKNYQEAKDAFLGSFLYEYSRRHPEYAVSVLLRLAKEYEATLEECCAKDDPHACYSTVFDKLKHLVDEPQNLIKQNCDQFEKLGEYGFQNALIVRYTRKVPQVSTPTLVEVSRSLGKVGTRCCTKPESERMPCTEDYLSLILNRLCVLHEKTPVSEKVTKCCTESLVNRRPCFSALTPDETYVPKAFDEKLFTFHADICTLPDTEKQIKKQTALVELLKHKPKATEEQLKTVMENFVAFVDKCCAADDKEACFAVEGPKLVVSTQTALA
Chain of porcine serum albumin (PSA) (P08835 25-607): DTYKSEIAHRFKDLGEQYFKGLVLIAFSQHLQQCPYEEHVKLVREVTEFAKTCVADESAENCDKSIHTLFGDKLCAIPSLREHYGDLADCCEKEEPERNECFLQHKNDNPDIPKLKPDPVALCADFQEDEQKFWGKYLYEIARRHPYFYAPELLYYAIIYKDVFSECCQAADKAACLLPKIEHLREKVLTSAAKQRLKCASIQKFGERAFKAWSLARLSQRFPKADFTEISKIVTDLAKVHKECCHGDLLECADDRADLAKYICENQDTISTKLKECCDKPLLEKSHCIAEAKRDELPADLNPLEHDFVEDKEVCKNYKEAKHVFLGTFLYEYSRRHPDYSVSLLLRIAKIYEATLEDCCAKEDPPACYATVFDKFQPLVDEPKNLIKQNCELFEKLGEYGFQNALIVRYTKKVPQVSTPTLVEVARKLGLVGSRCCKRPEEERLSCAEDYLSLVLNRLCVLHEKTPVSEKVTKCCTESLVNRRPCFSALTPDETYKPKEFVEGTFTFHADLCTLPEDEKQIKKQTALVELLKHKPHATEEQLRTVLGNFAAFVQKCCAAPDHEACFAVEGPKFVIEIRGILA
Chain of rat serum albumin (RSA) (P02770 25-608): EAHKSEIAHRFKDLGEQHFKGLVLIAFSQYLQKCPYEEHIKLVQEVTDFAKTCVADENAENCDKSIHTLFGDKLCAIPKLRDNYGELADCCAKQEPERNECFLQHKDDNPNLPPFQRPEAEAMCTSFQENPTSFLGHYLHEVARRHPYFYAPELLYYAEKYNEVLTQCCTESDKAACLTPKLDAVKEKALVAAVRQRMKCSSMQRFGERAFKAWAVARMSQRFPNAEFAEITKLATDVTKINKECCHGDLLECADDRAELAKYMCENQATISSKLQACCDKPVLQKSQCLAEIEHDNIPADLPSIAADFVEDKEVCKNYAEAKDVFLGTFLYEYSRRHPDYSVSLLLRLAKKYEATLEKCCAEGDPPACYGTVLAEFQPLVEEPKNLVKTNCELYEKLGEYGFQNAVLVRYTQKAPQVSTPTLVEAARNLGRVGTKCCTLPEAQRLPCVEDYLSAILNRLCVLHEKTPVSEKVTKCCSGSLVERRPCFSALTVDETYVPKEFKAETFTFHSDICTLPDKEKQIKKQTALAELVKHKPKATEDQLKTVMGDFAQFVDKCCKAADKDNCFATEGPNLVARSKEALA
T1 sequence (P02768 25-609): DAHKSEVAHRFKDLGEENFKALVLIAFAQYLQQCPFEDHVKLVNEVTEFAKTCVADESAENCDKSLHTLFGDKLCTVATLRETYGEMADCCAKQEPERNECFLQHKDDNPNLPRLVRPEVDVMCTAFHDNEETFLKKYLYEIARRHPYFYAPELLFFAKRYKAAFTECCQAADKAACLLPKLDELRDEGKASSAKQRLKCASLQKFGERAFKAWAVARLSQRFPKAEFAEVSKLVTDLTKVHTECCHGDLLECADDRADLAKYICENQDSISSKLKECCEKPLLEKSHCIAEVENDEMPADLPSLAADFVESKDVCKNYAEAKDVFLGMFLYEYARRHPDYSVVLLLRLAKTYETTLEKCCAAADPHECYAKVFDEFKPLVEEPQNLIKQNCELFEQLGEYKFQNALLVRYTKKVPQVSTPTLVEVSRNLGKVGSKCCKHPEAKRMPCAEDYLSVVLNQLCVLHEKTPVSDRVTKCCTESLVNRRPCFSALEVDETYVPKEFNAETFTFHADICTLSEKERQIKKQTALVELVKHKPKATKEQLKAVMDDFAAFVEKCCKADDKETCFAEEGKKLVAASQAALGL
Chain of human serum albumin (HSA) (P02768 25-609): as above

C[C@@H]1Cc2c(Cl)cc(C(=O)N[C@@H](Cc3ccccc3)C(=O)O)c(O)c2C(=O)O1 [OTA, Ochratoxin A]
plasma elimination half-life [1]: approximately one month | stability of OTA-HSA complex higher than that of the complex with bovine albumin (HSA [2]): approximately tenfold | stability of OTA-HSA complex higher than that of the complex with rat albumin (HSA [2]): ~30 fold | affinity order toward albumins of different species (HSA [2]; previous investigations): Human > bovine > porcine > rat | effect on the concentration of ATP and total protein (MDCK cells [3]): dose-dependent, significant decreases | fluorescence enhancement by RSA compared with other albumins (rat serum albumin (RSA); [12]): highest fluorescence | plasma protein binding [4]: 99.8%

C[C@H]1CCCC(=O)CCC/C=C/c2cc(O)cc(O)c2C(=O)O1 [zearalenone]
binding constant K of the complex with HSA (HSA [2]): 10^5 L/mol

CC1=C2C(=CO[C@H](C)[C@H]2C)C(O)=C(C(=O)O)C1=O [citrinin]
binding constant K of the complex with HSA (HSA [2]): 200000 L/mol

C=CC1=C(C)/C(=C/c2[nH]c(Cc3[nH]c(/C=C4\NC(=O)C(C)=C4C=C)c(C)c3CCC(=O)O)c(CCC(=O)O)c2C)NC1=O [bilirubin]
displacement of 2′R-OTA from HSA by the site marker (HSA [5]): strongly displaced

C[C@@H]1Cc2c(Cl)cc(C(=O)N[C@H](Cc3ccccc3)C(=O)O)c(O)c2C(=O)O1 [2′R-OTA, 2′R-ochratoxin A]
affinity to HSA lower than that of OTA (HSA [2]): approximately tenfold | binding constant K of the complex with HSA (HSA [2]): ~ 2 × 10^6 L/mol and 2 × 10^6 L/mol | binding constant of 2′R-OTA-HSA complex higher than that of aflatoxin-HSA complexes (HSA [2]): 100 fold | effect on the concentration of ATP and total protein (MDCK cells [3]): dose-dependent, significant decreases | cytotoxicity relative to OTA (MDCK cells [3]): approximately 10 times lower | ΔH of 2′R-OTA-HSA complex formation (HSA [6]; 298-313 K): -2.02 kcal/mol | ΔS of 2′R-OTA-HSA complex formation (HSA [6]; 298-313 K): 102.62 J K^-1 mol^-1 | ΔG of 2′R-OTA-HSA complex formation (HSA [6]; 298K (room-temperature)): -9.331 kcal/mol | acute toxicity compared with OTA [7]: lower acute toxicity | I/I0 (±SD), enhancement of the fluorescence of 2′R-OTA by complex formation (rat serum albumin (RSA); RSA, λex = 394 nm, λem = 447 nm, PBS): 2.22 ± 0.09 | affinity to RSA relative to HSA and PSA (rat serum albumin (RSA); [13]): 2–3 times higher | Kd (rat serum albumin (RSA); logK (± SD) of binding constant, RSA, λex = 295 nm, λem = 447 nm): 355 nM | Kd (rat serum albumin (RSA); logK (±SD) of binding constant, RSA, λex = 394 nm, λem = 447 nm): 64.6 nM | fluorescence enhancement by BSA compared with other albumins [8, 12]: highest emission signal | I/I0 (±SD), enhancement of the fluorescence of 2′R-OTA by complex formation ([8]; BSA, λex = 394 nm, λem = 447 nm, PBS): 2.48 ± 0.06 | affinity to BSA relative to HSA and PSA [8, 13]: 2–3 times higher | Kd ([8]; logK (± SD) of binding constant, BSA, λex = 295 nm, λem = 447 nm): 214 nM | Kd ([8]; logK (±SD) of binding constant, BSA, λex = 394 nm, λem = 447 nm): 47.9 nM | Kd [9]: 525 nM | I/I0 (±SD), enhancement of the fluorescence of 2′R-OTA by complex formation ([9]; HSA, λex = 394 nm, λem = 447 nm, PBS): 2.35 ± 0.07 | Kd at 1 µM ([9]; human, human serum albumin (HSA) in PBS, pH 7.4): 229 nM | Kd ([10]; logK (± SD) of binding constant, λex = 295 nm): 617 nM | Kd ([10]; logK (±SD) of binding constant, λex = 394 nm): 145 nM | I/I0 (±SD), enhancement of the fluorescence of 2′R-OTA by complex formation ([10]; λex = 394 nm, PBS): 1.98 ± 0.05 | effect of 2′R-OTA on the toxic effect of OTA (MDCK cells [11]; absence of FBS, 1 μM OTA): increased significantly | effect of 2′R-OTA on the toxic effect of OTA (MDCK cells [11]; presence of 10% FBS, 20 μM OTA): increased significantly

CN(C)c1ccc(N=Nc2ccc(S(=O)(=O)[O-])cc2)cc1.[Na+] [methyl orange]
affinity to HSA compared with another ligand (HSA [2]): much lower affinity to HSA than bilirubin | displacement of 2′R-OTA from HSA by the site marker (HSA [5]): strongly displaced
